# Measured values from paper PMC8222254, “Self-assembly of an anion receptor with metal-dependent kinase inhibition and potent in vitro anti-cancer properties” (Nature Communications, 2021).
# Several values for one entry are separate records, joined by “and”; a condition that tells them apart may be missing. Identical values can stand only once.
# Assays:
# Test in all cases: Kinase inhibition screen, cell-free 33P ATP assay at 10 μM
# Type in all cases: biochemical
# [1] = target: 140 purified human kinases (Homo sapiens, UniProt O96017)
# Outline: (§1)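 Each complex tested in duplicate at 10 μM; cell-free radiometric assay using ^33P ATP on purified enzymes. Hits mapped by HGNC symbol onto the kinome tree.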
# [2] = target: 140 purified human kinases (Homo sapiens, UniProt Q13882); settings: BRK
# Chain of 140 purified human kinases (Homo sapiens, UniProt Q13882) (Q13882 whole entry): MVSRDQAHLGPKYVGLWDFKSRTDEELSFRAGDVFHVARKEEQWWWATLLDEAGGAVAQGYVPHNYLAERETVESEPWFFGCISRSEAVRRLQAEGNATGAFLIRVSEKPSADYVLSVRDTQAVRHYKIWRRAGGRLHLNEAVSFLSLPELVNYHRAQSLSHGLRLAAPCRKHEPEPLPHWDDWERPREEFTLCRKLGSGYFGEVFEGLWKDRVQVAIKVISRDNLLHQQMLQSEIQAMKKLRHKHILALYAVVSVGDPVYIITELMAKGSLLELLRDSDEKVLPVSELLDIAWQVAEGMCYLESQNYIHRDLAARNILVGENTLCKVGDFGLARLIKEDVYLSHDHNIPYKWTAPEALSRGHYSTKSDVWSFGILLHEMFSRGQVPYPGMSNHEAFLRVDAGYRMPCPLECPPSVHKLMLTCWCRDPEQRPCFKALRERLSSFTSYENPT
# Outline: as §1
# [3] = target: 140 purified human kinases (Homo sapiens, UniProt Q8N4C8)
# Chain of 140 purified human kinases (Homo sapiens, UniProt Q8N4C8) (Q8N4C8 whole entry): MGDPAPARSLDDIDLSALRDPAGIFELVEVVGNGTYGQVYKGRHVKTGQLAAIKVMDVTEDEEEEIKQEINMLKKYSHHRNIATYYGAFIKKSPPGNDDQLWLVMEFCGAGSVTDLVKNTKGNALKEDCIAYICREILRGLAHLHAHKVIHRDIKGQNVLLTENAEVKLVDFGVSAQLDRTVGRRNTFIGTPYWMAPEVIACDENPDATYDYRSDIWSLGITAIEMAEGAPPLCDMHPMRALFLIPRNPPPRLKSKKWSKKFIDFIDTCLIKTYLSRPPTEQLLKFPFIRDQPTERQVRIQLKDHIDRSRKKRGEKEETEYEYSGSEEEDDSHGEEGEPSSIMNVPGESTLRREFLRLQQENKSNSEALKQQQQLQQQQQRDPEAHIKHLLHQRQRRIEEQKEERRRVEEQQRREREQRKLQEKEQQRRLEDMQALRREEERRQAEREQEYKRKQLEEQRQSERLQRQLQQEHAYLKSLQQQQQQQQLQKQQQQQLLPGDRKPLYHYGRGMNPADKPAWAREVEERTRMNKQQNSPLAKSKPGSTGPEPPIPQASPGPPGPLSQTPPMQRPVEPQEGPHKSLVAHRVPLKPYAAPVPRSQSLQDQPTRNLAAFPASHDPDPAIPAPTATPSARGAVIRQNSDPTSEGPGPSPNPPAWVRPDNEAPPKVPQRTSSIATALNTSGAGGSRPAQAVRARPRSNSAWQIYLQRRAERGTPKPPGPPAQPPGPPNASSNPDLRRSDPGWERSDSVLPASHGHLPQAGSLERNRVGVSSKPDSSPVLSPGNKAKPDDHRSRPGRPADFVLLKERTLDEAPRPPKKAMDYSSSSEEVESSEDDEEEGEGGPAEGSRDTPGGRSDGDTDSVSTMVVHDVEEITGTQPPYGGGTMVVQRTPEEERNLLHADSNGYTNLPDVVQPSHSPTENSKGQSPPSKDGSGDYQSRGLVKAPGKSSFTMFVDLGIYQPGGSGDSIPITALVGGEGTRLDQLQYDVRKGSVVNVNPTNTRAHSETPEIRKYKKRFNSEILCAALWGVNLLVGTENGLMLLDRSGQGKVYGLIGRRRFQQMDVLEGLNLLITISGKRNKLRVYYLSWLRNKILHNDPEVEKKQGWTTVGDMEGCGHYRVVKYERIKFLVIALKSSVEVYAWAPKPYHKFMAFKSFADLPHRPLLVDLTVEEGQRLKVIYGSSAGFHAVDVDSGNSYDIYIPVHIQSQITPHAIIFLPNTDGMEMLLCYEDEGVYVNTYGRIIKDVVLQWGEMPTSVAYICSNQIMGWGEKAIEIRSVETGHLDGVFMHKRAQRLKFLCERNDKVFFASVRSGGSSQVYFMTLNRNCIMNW
# Outline: as §1
# [4] = target: T1, 140 purified human kinases (Homo sapiens, UniProt Q8IWQ3)
# T1 sequence (Q8IWQ3 1-736): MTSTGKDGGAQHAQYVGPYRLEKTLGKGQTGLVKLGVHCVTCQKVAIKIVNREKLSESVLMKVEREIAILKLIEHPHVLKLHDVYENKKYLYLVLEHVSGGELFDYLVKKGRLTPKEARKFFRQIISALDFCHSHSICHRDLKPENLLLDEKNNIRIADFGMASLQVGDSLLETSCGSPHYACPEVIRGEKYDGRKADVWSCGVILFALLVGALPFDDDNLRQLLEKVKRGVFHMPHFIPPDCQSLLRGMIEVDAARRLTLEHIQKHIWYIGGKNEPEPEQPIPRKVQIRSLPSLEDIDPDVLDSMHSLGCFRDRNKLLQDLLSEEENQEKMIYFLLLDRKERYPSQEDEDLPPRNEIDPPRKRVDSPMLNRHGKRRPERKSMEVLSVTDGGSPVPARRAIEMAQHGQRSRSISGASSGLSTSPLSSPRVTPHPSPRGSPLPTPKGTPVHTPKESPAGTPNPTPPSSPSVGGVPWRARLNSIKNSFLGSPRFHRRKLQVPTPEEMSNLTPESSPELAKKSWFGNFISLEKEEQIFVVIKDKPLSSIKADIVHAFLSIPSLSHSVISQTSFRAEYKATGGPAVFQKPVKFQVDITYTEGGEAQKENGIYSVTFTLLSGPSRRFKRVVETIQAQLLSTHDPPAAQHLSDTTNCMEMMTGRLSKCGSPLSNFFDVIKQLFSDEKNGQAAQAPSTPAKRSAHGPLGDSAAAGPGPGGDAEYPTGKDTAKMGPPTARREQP
# Outline: as §1
# [5] = target: T2, 140 purified human kinases (Homo sapiens, UniProt Q92630)
# T2 sequence (Q92630 1-601): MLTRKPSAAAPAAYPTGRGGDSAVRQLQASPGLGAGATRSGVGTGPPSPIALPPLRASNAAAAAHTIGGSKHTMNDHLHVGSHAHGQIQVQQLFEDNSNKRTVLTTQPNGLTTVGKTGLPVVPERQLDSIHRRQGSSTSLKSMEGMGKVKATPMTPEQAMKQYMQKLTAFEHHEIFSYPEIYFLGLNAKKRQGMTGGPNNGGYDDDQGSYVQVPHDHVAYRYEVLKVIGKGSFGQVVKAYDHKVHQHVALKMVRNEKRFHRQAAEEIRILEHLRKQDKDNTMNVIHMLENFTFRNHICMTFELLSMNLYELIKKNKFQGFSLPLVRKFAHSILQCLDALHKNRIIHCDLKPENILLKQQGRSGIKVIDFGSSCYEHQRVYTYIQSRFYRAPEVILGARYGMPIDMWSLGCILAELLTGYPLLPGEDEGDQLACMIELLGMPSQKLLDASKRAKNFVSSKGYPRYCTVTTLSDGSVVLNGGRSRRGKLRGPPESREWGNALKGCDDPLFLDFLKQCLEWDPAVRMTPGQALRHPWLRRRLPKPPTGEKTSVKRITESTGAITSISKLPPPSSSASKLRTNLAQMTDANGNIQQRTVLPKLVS
# Outline: as §1
# [6] = target: 140 purified human kinases (Homo sapiens, UniProt P17948); settings: VEG-FR
# Chain of 140 purified human kinases (Homo sapiens, UniProt P17948) (P17948 27-1338): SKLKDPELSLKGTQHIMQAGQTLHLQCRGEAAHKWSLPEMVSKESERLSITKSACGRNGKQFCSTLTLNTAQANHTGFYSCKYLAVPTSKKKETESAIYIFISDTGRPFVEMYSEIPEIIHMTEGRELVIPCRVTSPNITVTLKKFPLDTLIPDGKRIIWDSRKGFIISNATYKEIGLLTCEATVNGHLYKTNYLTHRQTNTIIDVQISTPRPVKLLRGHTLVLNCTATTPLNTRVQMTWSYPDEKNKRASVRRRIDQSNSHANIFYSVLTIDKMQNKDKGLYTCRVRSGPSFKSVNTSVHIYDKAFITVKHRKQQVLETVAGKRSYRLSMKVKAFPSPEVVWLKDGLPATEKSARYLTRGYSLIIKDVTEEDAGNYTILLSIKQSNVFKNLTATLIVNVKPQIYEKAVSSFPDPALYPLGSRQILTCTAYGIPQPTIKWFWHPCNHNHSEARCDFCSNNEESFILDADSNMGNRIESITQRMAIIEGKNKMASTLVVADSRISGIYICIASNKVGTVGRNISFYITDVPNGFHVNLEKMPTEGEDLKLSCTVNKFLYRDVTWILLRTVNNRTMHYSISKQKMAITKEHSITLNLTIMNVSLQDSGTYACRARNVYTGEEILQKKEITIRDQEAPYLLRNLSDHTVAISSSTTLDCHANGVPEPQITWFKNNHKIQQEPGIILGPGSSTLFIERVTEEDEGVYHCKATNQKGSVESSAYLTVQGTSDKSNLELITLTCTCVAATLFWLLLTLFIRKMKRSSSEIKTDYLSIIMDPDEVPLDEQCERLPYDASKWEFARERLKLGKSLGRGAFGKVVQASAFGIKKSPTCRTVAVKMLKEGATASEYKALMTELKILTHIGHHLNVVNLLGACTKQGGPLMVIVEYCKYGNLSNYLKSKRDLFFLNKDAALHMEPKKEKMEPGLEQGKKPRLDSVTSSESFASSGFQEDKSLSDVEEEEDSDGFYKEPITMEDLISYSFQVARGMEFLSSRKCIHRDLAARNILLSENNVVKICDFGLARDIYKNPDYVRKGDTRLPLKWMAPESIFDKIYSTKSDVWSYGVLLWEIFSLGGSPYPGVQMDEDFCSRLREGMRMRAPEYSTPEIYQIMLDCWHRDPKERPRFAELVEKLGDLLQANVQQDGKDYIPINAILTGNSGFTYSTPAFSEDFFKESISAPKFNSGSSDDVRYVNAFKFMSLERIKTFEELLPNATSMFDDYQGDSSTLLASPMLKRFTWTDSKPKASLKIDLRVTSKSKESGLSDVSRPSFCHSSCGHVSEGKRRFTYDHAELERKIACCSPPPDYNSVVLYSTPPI
# Outline: as §1
# [7] = target: 140 purified human kinases (Homo sapiens, UniProt Q9Y6E0)
# Chain of 140 purified human kinases (Homo sapiens, UniProt Q9Y6E0) (Q9Y6E0 whole entry): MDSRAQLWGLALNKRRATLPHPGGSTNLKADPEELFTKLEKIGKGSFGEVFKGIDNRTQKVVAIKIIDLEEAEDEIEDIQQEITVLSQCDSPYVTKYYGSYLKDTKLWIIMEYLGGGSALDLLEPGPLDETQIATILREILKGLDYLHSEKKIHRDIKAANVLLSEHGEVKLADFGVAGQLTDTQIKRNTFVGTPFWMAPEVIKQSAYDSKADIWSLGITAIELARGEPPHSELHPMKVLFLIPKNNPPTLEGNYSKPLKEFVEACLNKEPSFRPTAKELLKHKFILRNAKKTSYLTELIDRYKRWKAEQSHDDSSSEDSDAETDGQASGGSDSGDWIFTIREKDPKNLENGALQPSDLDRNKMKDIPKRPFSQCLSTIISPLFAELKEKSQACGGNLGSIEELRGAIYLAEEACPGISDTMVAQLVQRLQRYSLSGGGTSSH
# Outline: as §1
# [8] = target: 140 purified human kinases (Homo sapiens, UniProt P29317)
# Outline: as §1
# [9] = target: 140 purified human kinases (Homo sapiens, UniProt Q15418)
# Chain of 140 purified human kinases (Homo sapiens, UniProt Q15418) (Q15418 whole entry): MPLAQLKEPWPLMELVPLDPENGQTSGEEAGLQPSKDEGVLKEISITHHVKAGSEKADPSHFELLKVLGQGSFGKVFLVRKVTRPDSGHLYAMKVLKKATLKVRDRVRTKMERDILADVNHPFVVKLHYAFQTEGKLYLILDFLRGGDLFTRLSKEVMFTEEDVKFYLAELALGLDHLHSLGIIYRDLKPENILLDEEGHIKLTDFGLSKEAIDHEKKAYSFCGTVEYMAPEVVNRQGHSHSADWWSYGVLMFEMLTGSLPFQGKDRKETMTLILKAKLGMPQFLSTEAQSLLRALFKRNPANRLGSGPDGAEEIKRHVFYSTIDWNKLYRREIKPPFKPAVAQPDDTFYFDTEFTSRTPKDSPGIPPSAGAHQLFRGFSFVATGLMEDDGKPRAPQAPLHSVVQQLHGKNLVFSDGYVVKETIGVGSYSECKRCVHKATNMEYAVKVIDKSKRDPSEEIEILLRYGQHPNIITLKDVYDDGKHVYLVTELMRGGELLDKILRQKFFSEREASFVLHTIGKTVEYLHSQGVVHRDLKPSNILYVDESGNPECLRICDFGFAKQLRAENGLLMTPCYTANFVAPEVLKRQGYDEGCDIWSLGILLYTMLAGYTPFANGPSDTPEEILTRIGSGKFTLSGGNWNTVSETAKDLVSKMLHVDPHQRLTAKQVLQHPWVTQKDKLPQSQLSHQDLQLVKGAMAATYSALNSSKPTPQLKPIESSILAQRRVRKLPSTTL
# Outline: as §1
# [10] = target: 140 purified human kinases (Homo sapiens, UniProt Q02750)
# Chain of 140 purified human kinases (Homo sapiens, UniProt Q02750) (Q02750 whole entry): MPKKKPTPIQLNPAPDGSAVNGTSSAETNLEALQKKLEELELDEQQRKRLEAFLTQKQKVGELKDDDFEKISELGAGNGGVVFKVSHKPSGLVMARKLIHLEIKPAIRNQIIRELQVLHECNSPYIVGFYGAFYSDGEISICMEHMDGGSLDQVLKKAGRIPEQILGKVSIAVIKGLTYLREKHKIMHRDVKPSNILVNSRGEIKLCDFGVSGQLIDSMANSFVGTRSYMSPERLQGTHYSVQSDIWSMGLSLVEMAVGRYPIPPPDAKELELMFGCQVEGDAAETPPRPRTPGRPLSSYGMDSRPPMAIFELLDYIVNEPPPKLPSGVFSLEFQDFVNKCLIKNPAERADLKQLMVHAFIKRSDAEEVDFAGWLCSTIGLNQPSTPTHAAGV
# Outline: as §1
structure (smiles),measurement,setting,value
[Cu+2].[Cu+2].[Cu+2].c1ccc(-c2csc(NCCN(CCNc3nc(-c4ccccn4)cs3)CCNc3nc(-c4ccccn4)cs3)n2)nc1.c1ccc(-c2csc(NCCN(CCNc3nc(-c4ccccn4)cs3)CCNc3nc(-c4ccccn4)cs3)n2)nc1 [[L2Cu3]6+],% Inhibition Run 1,[1]; CHK2,86.3%
same,% Inhibition Run 2,[1]; CHK2,76.4%
same,"% Inhibition, Mean",[1]; CHK2,81%
same,mean % activity,[1]; CHK2,19%
same,% activity,"[1]; CHK2, Run 1",13.7%
same,% activity,"[1]; CHK2, Run 2",23.6%
same,% Inhibition Run 1,[2],67.9%
same,% Inhibition Run 2,[2],57.6%
same,"% Inhibition, Mean",[2],63%
same,mean % activity,[2],37%
same,% activity,[2]; Run 1,32.1%
same,% activity,[2]; Run 2,42.4%
same,% Inhibition Run 1,[3]; MINK1,70%
same,% Inhibition Run 2,[3]; MINK1,78.2%
same,"% Inhibition, Mean",[3]; MINK1,74%
same,mean % activity,[3]; MINK1,26%
same,% activity,"[3]; MINK1, Run 1",30%
same,% activity,"[3]; MINK1, Run 2",21.8%
same,% Inhibition Run 1,[4]; BRSK2,77.8%
same,% Inhibition Run 2,[4]; BRSK2,75.3%
same,"% Inhibition, Mean",[4]; BRSK2,77%
same,mean % activity,[4]; BRSK2,23%
same,% activity,"[4]; BRSK2, Run 1",22.2%
same,% activity,"[4]; BRSK2, Run 2",24.7%
same,% Inhibition Run 1,[5]; DYRK2,27.2%
same,% Inhibition Run 2,[5]; DYRK2,-2.7%
same,"% Inhibition, Mean",[5]; DYRK2,12%
same,mean % activity,[5]; DYRK2,88%
same,% activity,"[5]; DYRK2, Run 1",72.8%
same,% activity,"[5]; DYRK2, Run 2",102.7%
same,% Inhibition Run 1,[6],28.1%
same,% Inhibition Run 2,[6],27.2%
same,"% Inhibition, Mean",[6],28%
same,mean % activity,[6],72%
same,% activity,[6]; Run 1,71.9%
same,% activity,[6]; Run 2,72.8%
same,% Inhibition Run 1,[7]; MST3,9.9%
same,% Inhibition Run 2,[7]; MST3,-5.7%
same,"% Inhibition, Mean",[7]; MST3,2%
same,mean % activity,[7]; MST3,98%
same,% activity,"[7]; MST3, Run 1",90.1%
same,% activity,"[7]; MST3, Run 2",105.7%
same,% Inhibition Run 1,[8]; EPH-A2,3.5%
same,% Inhibition Run 2,[8]; EPH-A2,9.8%
same,"% Inhibition, Mean",[8]; EPH-A2,6.65%
same,mean % activity,[8]; EPH-A2,93%
same,% activity,"[8]; EPH-A2, Run 1",96.5%
same,% activity,"[8]; EPH-A2, Run 2",90.2%
same,% Inhibition Run 1,[9]; RSK1,96.7%
same,% Inhibition Run 2,[9]; RSK1,97%
same,"% Inhibition, Mean",[9]; RSK1,97%
same,mean % activity,[9]; RSK1,3%
same,% activity,"[9]; RSK1, Run 1",3.3%
same,% activity,"[9]; RSK1, Run 2",3%
same,% Activity inhibition Mean,"[9]; RSK1, 10 µM",96.9%
same,% Activity inhibition Run 1,"[9]; RSK1, 10 µM",96.7%
same,% Activity inhibition Run 2,"[9]; RSK1, 10 µM",97%
same,% Activity remaining Run 1,"[9]; RSK1, 10 µM",3.30%
same,% Activity remaining Run 2,"[9]; RSK1, 10 µM",3.00%
same,% Inhibition Run 1,[10]; MKK1,34%
same,% Inhibition Run 2,[10]; MKK1,8.9%
same,"% Inhibition, Mean",[10]; MKK1,21%
same,mean % activity,[10]; MKK1,79%
same,% activity,"[10]; MKK1, Run 1",66%
same,% activity,"[10]; MKK1, Run 2",91.1%
CC(=O)[O-].CC(=O)[O-].CC(=O)[O-].CC(=O)[O-].CC(=O)[O-].CC(=O)[O-].[Zn+2].[Zn+2].[Zn+2].c1ccc(-c2csc(NCCN(CCNc3nc(-c4ccccn4)cs3)CCNc3nc(-c4ccccn4)cs3)n2)nc1.c1ccc(-c2csc(NCCN(CCNc3nc(-c4ccccn4)cs3)CCNc3nc(-c4ccccn4)cs3)n2)nc1 [[L2Zn3]6+],"% Inhibition, Mean",[1]; CHK2,22%
same,mean % activity,[1]; CHK2,78%
same,% activity,"[1]; CHK2, duplicate runs",64% and 92%
same,"% Inhibition, Mean",[2],76%
same,"% Inhibition, Run 1 / Run 2",[2],83% and 69%
same,mean % activity,[2],24%
same,% activity,[2]; duplicate runs,17% and 31%
same,"% Inhibition, Mean",[3]; MINK1,67%
same,"% Inhibition, Run 1 / Run 2",[3]; MINK1,72% and 62%
same,mean % activity,[3]; MINK1,33%
same,% activity,"[3]; MINK1, duplicate runs",28% and 38%
same,"% Inhibition, Mean",[4]; BRSK2,37%
same,"% Inhibition, Run 1 / Run 2",[4]; BRSK2,44% and 30%
same,mean % activity,[4]; BRSK2,63%
same,% activity,"[4]; BRSK2, duplicate runs",56% and 70%
same,"% Activation, Mean value",[5]; DYRK2,4.5%
same,"% Inhibition, Mean",[5]; DYRK2,-4.5%
same,mean % activity,[5]; DYRK2,105%
same,% activity,"[5]; DYRK2, duplicate runs",97% and 112%
same,"% Inhibition, Mean",[6],17%
same,mean % activity,[6],83%
same,% activity,[6]; duplicate runs,73% and 93%
same,"% Inhibition, Mean",[7]; MST3,0.4%
same,"% Inhibition, Run 1 / Run 2",[7]; MST3,-3.6% and 4.4%
same,mean % activity,[7]; MST3,100%
same,% activity,"[7]; MST3, duplicate runs",104% and 96%
same,"% Inhibition, Mean",[8]; EPH-A2,19%
same,"% Inhibition, Run 1 / Run 2",[8]; EPH-A2,21% and 17%
same,mean % activity,[8]; EPH-A2,81%
same,% activity,"[8]; EPH-A2, duplicate runs",79% and 83%
same,"% Inhibition, Mean",[9]; RSK1,73%
same,"% Inhibition, Run 1 / Run 2",[9]; RSK1,76% and 70%
same,mean % activity,[9]; RSK1,27%
same,% activity,"[9]; RSK1, duplicate runs",24% and 30%
same,"% Activation, Mean value",[10]; MKK1,3%
same,"% Inhibition, Mean",[10]; MKK1,-3%
same,"% Inhibition, Run 1 / Run 2",[10]; MKK1,-3%
same,mean % activity,[10]; MKK1,103%
same,% activity,"[10]; MKK1, duplicate runs",103%
